Results from the NIST ThermoML archive (doi:10.1016/j.jct.2014.12.020).

Experiment: wn = mass fraction of the nth substance listed
Details: 100 kPa, Liquid; for viscosity: Concentric cylinders viscometry; for mass density: Vibrating tube method

C[C@H](O)C(=O)[O-].C[N+](C)(C)CCO + O
Details | mass density [kg/m3] | viscosity [mPa·s]
293.15 K, w2 = 0.004 | 1140.9 | 3661.3
293.15 K, w2 = 0.011 | 1142 | 2703
293.15 K, w2 = 0.02 | 1142.3 | 1543.3
293.15 K, w2 = 0.029 | 1141.9 | 1408.3
293.15 K, w2 = 0.045 | 1140.9 | 888
293.15 K, w2 = 0.066 | 1139.9 | 546.3
293.15 K, w2 = 0.077 | 1139.3 | 421.4
293.15 K, w2 = 0.121 | 1137 | 201.3
293.15 K, w2 = 0.167 | 1135.4 | 119.8
293.15 K, w2 = 0.218 | 1131.4 | 70.5
293.15 K, w2 = 0.24 | 1127.4 | 48
298.15 K, w2 = 0.004 | 1137.8 | 2310.1
298.15 K, w2 = 0.011 | 1138.8 | 1732.1
298.15 K, w2 = 0.02 | 1139 | 1021
298.15 K, w2 = 0.029 | 1138.5 | 936.5
298.15 K, w2 = 0.045 | 1137.5 | 604.3
298.15 K, w2 = 0.066 | 1136.5 | 380.6
298.15 K, w2 = 0.077 | 1136 | 297.1
298.15 K, w2 = 0.121 | 1133.7 | 146.7
298.15 K, w2 = 0.167 | 1132.1 | 89.1
298.15 K, w2 = 0.218 | 1128.1 | 53.6
298.15 K, w2 = 0.24 | 1124.1 | 37.1
303.15 K, w2 = 0.004 | 1134.7 | 1510.1
303.15 K, w2 = 0.011 | 1135.6 | 1150.1
303.15 K, w2 = 0.02 | 1135.7 | 697.5
303.15 K, w2 = 0.029 | 1135.2 | 642.3
303.15 K, w2 = 0.045 | 1134.2 | 423.6
303.15 K, w2 = 0.066 | 1133.3 | 272.7
303.15 K, w2 = 0.077 | 1132.7 | 215.2
303.15 K, w2 = 0.121 | 1130.5 | 109.4
303.15 K, w2 = 0.167 | 1128.9 | 67.8
303.15 K, w2 = 0.218 | 1124.8 | 41.6
303.15 K, w2 = 0.24 | 1120.8 | 29.2
308.15 K, w2 = 0.004 | 1131.7 | 1019.4
308.15 K, w2 = 0.011 | 1132.4 | 787.6
308.15 K, w2 = 0.02 | 1132.4 | 490.6
308.15 K, w2 = 0.029 | 1131.8 | 453.5
308.15 K, w2 = 0.045 | 1130.9 | 305
308.15 K, w2 = 0.066 | 1130.1 | 200.4
308.15 K, w2 = 0.077 | 1129.6 | 159.8
308.15 K, w2 = 0.121 | 1127.3 | 83.5
308.15 K, w2 = 0.167 | 1125.8 | 52.6
308.15 K, w2 = 0.218 | 1121.6 | 32.9
308.15 K, w2 = 0.24 | 1117.6 | 23.4
313.15 K, w2 = 0.004 | 1128.6 | 708.4
313.15 K, w2 = 0.011 | 1129.1 | 554.7
313.15 K, w2 = 0.02 | 1129.2 | 354.1
313.15 K, w2 = 0.029 | 1128.6 | 328.4
313.15 K, w2 = 0.045 | 1127.8 | 225
313.15 K, w2 = 0.066 | 1126.9 | 150.7
313.15 K, w2 = 0.077 | 1126.4 | 121.4
313.15 K, w2 = 0.121 | 1124.2 | 65
313.15 K, w2 = 0.167 | 1122.6 | 41.7
313.15 K, w2 = 0.218 | 1118.5 | 26.4
313.15 K, w2 = 0.24 | 1114.5 | 18.9
318.15 K, w2 = 0.004 | 1125.4 | 505.4
318.15 K, w2 = 0.011 | 1125.9 | 400.7
318.15 K, w2 = 0.02 | 1126.1 | 261.6
318.15 K, w2 = 0.029 | 1125.5 | 243.5
318.15 K, w2 = 0.045 | 1124.7 | 169.7
318.15 K, w2 = 0.066 | 1123.8 | 115.6
318.15 K, w2 = 0.077 | 1123.3 | 94
318.15 K, w2 = 0.121 | 1121 | 51.5
318.15 K, w2 = 0.167 | 1119.5 | 33.6
318.15 K, w2 = 0.218 | 1115.2 | 21.6
318.15 K, w2 = 0.24 | 1111.2 | 15.8
323.15 K, w2 = 0.004 | 1122.3 | 369.4
323.15 K, w2 = 0.011 | 1122.7 | 296.2
323.15 K, w2 = 0.02 | 1123 | 197.4
323.15 K, w2 = 0.029 | 1122.4 | 184.4
323.15 K, w2 = 0.045 | 1121.6 | 130.6
323.15 K, w2 = 0.066 | 1120.8 | 90.4
323.15 K, w2 = 0.077 | 1120.2 | 74.1
323.15 K, w2 = 0.121 | 1118 | 41.5
323.15 K, w2 = 0.167 | 1116.3 | 27.4
323.15 K, w2 = 0.218 | 1112 | 17.9
323.15 K, w2 = 0.24 | 1108 | 13.2
328.15 K, w2 = 0.004 | 1119.2 | 275.9
328.15 K, w2 = 0.011 | 1119.8 | 223.5
328.15 K, w2 = 0.02 | 1120.1 | 151.8
328.15 K, w2 = 0.029 | 1119.4 | 142.3
328.15 K, w2 = 0.045 | 1118.6 | 102.3
328.15 K, w2 = 0.066 | 1117.7 | 71.9
328.15 K, w2 = 0.077 | 1117.1 | 59.3
328.15 K, w2 = 0.121 | 1114.9 | 33.9
328.15 K, w2 = 0.167 | 1113.2 | 22.7
328.15 K, w2 = 0.218 | 1108.8 | 15
328.15 K, w2 = 0.24 | 1104.8 | 11.2
333.15 K, w2 = 0.004 | 1116.3 | 210.2
333.15 K, w2 = 0.011 | 1116.8 | 171.9
333.15 K, w2 = 0.02 | 1117.1 | 118.9
333.15 K, w2 = 0.029 | 1116.5 | 111.7
333.15 K, w2 = 0.045 | 1115.6 | 81.4
333.15 K, w2 = 0.066 | 1114.7 | 58
333.15 K, w2 = 0.077 | 1114.1 | 48.2
333.15 K, w2 = 0.121 | 1111.8 | 28.1
333.15 K, w2 = 0.167 | 1110 | 19
333.15 K, w2 = 0.218 | 1105.6 | 12.7
333.15 K, w2 = 0.24 | 1101.5 | 9.5
338.15 K, w2 = 0.004 | 1113.3 | 163.1
338.15 K, w2 = 0.011 | 1114 | 134.6
338.15 K, w2 = 0.02 | 1114.2 | 94.6
338.15 K, w2 = 0.029 | 1113.6 | 89
338.15 K, w2 = 0.045 | 1112.6 | 65.8
338.15 K, w2 = 0.066 | 1111.8 | 47.5
338.15 K, w2 = 0.077 | 1111.2 | 39.7
338.15 K, w2 = 0.121 | 1108.6 | 23.5
338.15 K, w2 = 0.167 | 1106.8 | 16.1
338.15 K, w2 = 0.218 | 1102.4 | 11
338.15 K, w2 = 0.24 | 1098.3 | 8.3
343.15 K, w2 = 0.004 | 1110.2 | 128.7
343.15 K, w2 = 0.011 | 1111 | 106.9
343.15 K, w2 = 0.02 | 1111.3 | 76.3
343.15 K, w2 = 0.029 | 1110.7 | 72
343.15 K, w2 = 0.045 | 1109.8 | 53.8
343.15 K, w2 = 0.066 | 1108.8 | 39.3
343.15 K, w2 = 0.077 | 1108.1 | 33.1
343.15 K, w2 = 0.121 | 1105.5 | 19.9
343.15 K, w2 = 0.167 | 1103.7 | 13.8
343.15 K, w2 = 0.218 | 1099.2 | 9.5
343.15 K, w2 = 0.24 | 1095 | 7.3

CCCCCC(=O)[O-].C[N+](C)(C)CCO [2-hydroxy-N,N,N-trimethylethanaminium hexanoate] + O
Details | mass density, w2 = 0.058 [kg/m3] | mass density, w2 = 0.091 [kg/m3] | mass density, w2 = 0.161 [kg/m3] | mass density, w2 = 0.198 [kg/m3] | viscosity, w2 = 0.058 [mPa·s] | viscosity, w2 = 0.091 [mPa·s] | viscosity, w2 = 0.161 [mPa·s] | viscosity, w2 = 0.198 [mPa·s]
293.15 K | 1018 | 1021 | 1026 | 1026 | 1187.4 | 640.3 | 202.1 | 166.8
298.15 K | 1015 | 1018 | 1023 | 1023 | 831.9 | 462.6 | 151.2 | 125.3
303.15 K | 1012 | 1015 | 1020 | 1021 | 598.1 | 340.7 | 114.8 | 95.6
308.15 K | 1009 | 1012 | 1017 | 1018 | 439 | 255.5 | 88.6 | 74.1
313.15 K | 1007 | 1009 | 1014 | 1015 | 328.4 | 195.3 | 69.7 | 58.4
318.15 K | 1004 | 1006 | 1011 | 1012 | 249.1 | 150.8 | 55.1 | 46.4
323.15 K | 1001 | 1003 | 1008 | 1009 | 192.3 | 118.4 | 44.3 | 37.5
328.15 K | 998 | 1001 | 1005 | 1006 | 150.4 | 94.1 | 36.1 | 30.6
333.15 K | 996 | 998 | 1003 | 1003 | 119.5 | 76 | 29.8 | 25.3
338.15 K | 993 | 995 | 1000 | 1000 | 95.6 | 61.7 | 24.7 | 21
343.15 K | 990 | 992 | 997 | 997 | 77.6 | 50.7 | 20.7 | 17.7
